Measurements taken from patent US9452154B2, “Methods for treating HCV” (Gilead Sciences, Inc., priority 2010, dated 2016).
Several values for one entry are separate records, joined by “and”; a condition that tells them apart may be missing. Equal entries are not always repeated. Where two headings read alike, the source gives them in different places.

Experiments:
[1] = tested on: Huh-7 cells carrying a HCV genotype 1a replicon; assay: Biological Example 3: cytotoxicity in combination studies (MacSynergy II); settings: in combination with Compound 4
HCV genotype 1a replicon [2] = assay: Biological Example 3: HCV genotype 1a replicon assay, EC50; type: cell-based; settings: Hepatitis C virus, 72 h, 3 days, read-out: EC50
HCV genotype 1a replicon [3] = assay: Biological Example 3: antiviral combination studies with Compound 4 (MacSynergy II); settings: in combination with Compound 4
[4] = tested on: Genotype 1b replicon cells; assay: Biological Example 6: compound combination replicon cure assay; settings: after 6 days treatment, G418 for 14 days; Compound 6 4 pM, Compound 4 1000 nM, Compound 1 10 nM, Compound 3 26.25 nM
HCV 1b replicon system = assay: Biological Example 5: antiviral combination studies with Compound 6 (MacSynergy II); type: cell-based; settings: in combination with Compound 6
[5] = tested on: NS3 GT1b mutant replicons; type: cell-based, HCV; settings: mutant R155L
[6] = tested on: NS3 GT1a mutant replicons; type: cell-based, HCV
[7] = Biological Example 3: cytotoxicity (calcein AM), CC50; type: cell-based; settings: human, Huh-7 cells carrying a HCV genotype 1a replicon; HCV genotype 1a replicon cells; calcein AM
GT-1b Huh-lunet cells = assay: Biological Example 4: antiviral combination studies with Compound 5 (MacSynergy II); type: cell-based, HCV; settings: in combination with Compound 5, 1b replicon cells
[8] = tested on: Genotype 1b replicon cells; assay: Biological Example 6: compound concentration required to suppress replicon RNA by 1-1.5 log over 6 days (QRT-PCR); type: cell-based, HCV; settings: 6 day assay
Description: Flasks were incubated at 37° C., media and compounds were refreshed every two days. After 6 days of incubation the replicon cells were collected for RNA extraction and replicon RNA QRT-PCR analysis.

For `CC[C@@H]1C[C@]1(NC(=O)[C@@H]1C[C@@H](Oc2cc(-c3csc(NC(C)C)n3)nc3c(Cl)c(OCCN4CCOCC4)ccc23)CC1C(=O)[C@@H](NC(=O)O[C@@H]1C[C@@H]2C[C@@H]2C1)C(C)(C)C)C(=O)O` (stereo partly shown) [Compound 3], the “Antagonism Volume (cytotoxicity)” value [1] was 0 ± 0 nM^2%, the “Interaction (cytotoxicity)” value [1] was “Additivity (Additivity: ≦25 and >−25 nM^2%)” and the “Synergy Volume (cytotoxicity)” value [1] was 3 ± 5 nM^2%. For the same compound, the EC50 (HCV genotype 1a replicon [2]) was 49 ± 18 nM, the “Antagonism Volume” value (HCV genotype 1a replicon [3]) was −3 ± 2 nM^2% and the “Synergy Volume” value (HCV genotype 1a replicon [3]) was 26 ± 6 nM^2%. For the same compound, the Uncured colony number [4] was 989, the “Antagonism Volume” value (HCV 1b replicon system) was −0.1 ± 0.2 nM^2 and the Interaction (HCV 1b replicon system) was “Strong Synergy”. For the same compound, the “Synergy Volume” value (HCV 1b replicon system) was 132 nM^2 and 132 ± 44 nM^2, the “fold change in EC50 vs wild-type GT1b” value [5] was 1.2 fold and 0.9 fold and the “fold change in EC50 vs wild-type GT1a” value ([6]; mutant A156T) was greater than 141 fold. For the same compound, the “fold change in EC50 vs wild-type GT1a” value ([6]; mutant D168A) was greater than 300 fold, the “fold change in EC50 vs wild-type GT1a” value ([6]; mutant D168E) was 25.1 fold and the “fold change in EC50 vs wild-type GT1a” value ([6]; mutant D168G) was greater than 138 fold. The “fold change in EC50 vs wild-type GT1a” value ([6]; mutant D168H) was greater than 250 fold, the “fold change in EC50 vs wild-type GT1a” value ([6]; mutant D168N) was 20.5 fold and the “fold change in EC50 vs wild-type GT1a” value ([6]; mutant D168V) was greater than 156 fold. For the same compound, the “fold change in EC50 vs wild-type GT1a” value ([6]; mutant D168Y) was greater than 175 fold, the “fold change in EC50 vs wild-type GT1a” value ([6]; mutant R155I) was 0.9 fold and the “fold change in EC50 vs wild-type GT1a” value ([6]; mutant R155K) was greater than 150 fold. The “fold change in EC50 vs wild-type GT1a” value ([6]; mutant R155K + L31M) was greater than 100 fold, the “fold change in EC50 vs wild-type GT1a” value ([6]; mutant R155K + L31M + Y448H) was greater than 145 fold and the “fold change in EC50 vs wild-type GT1a” value ([6]; mutant R155K + M28T) was greater than 100 fold. For the same compound, the “fold change in EC50 vs wild-type GT1a” value ([6]; mutant R155K + M28T + Y448H) was 89.0 fold, the “fold change in EC50 vs wild-type GT1a” value ([6]; mutant R155K + Q30H + Y448H) was greater than 130 fold and the “fold change in EC50 vs wild-type GT1a” value ([6]; mutant R155K + Q30R) was greater than 100 fold. The “fold change in EC50 vs wild-type GT1a” value ([6]; mutant R155K + Y93H) was greater than 100 fold, the “fold change in EC50 vs wild-type GT1a” value ([6]; mutant R155K + Y488H (first line, r20)) was greater than 130 fold and the “fold change in EC50 vs wild-type GT1a” value ([6]; mutant R155K + Y488H (second line, r26)) was greater than 100 fold. The “fold change in EC50 vs wild-type GT1a” value ([6]; mutant R155M) was 1.5 fold, the “fold change in EC50 vs wild-type GT1a” value ([6]; mutant R155S) was 4.0 fold and the “fold change in EC50 vs wild-type GT1a” value ([6]; mutant R155T) was 2.3 fold. For the same compound, the “fold change in EC50 vs wild-type GT1a” value ([6]; mutant R155W) was 32.1 fold, the “fold change in EC50 vs wild-type GT1a” value ([6]; mutant R155k + Q30H) was greater than 100 fold and the CC50 at 3 days [7] was greater than 22200 nM. The “Antagonism Volume” value (GT-1b Huh-lunet cells) was −2 ± 2 nM^2, the Interaction (GT-1b Huh-lunet cells) was “Additive” and the “Synergy Volume” value (GT-1b Huh-lunet cells) was 19 ± 13 nM^2. For the same compound, the “Compound concentration able to induce replicon RNA 1-1.5 log drop” value [8] was 26.25 nM.
